# Data reported in patent publication US20100069345A1, “Lanthanide-porphyrin complexes as anti-tumor agents” (priority 2005, published 2010).
# Assays:
# HeLa cells [1] = assay: Effect of 3-MA on 1-induced cytotoxicity (MTT); format: cell-based, human; details: 3-MA 10 mM 1 h then 1 for 24 h, P<0.001
# Procedure: HeLa cells were pre-treated with 3-MA (10 mM) for 1 h, and then with 1 for 24 h as indicated. Cell viability was measured using MTT assay *, P<0.001. Effect of 3-MA on 1-induced cytotoxicity. Cells were seeded on 96-well microtitre plates (8×10^3 cells per well). After overnight incubation, the cells were pre-incubated with 3-methyladenine (3-MA, 10 mM) for 1 hour and then in the presence of 1 (DMSO<1%) for 24 h. Cell viability was measured by MTT assay as described before.
# calf thymus DNA = assay: Absorption titration with calf thymus DNA; format: binding; details: Tris buffer
# Procedure: The calf thymus DNA was purchased from Sigma-Aldrich Chemical Co. and was purified by phenol-chloroform extraction. The DNA was dissolved in buffer (5 mM Tris, 5 mM NaCl, pH 7.2). The concentration (per base pair) or calf thymus DNA was determined spectophotometrically on the basic of ε260, 13200 M^−1cm^−1bp.
# Absorption Titration. Studying the interaction between drugs and DNA is imperative to pharmaceutical chemistry. Since complexation between a ligand molecule and a nucleic acid leads to optical changes, its binding can be studied using spectroscopic methods like fluorescence and electronic absorption spectroscopy (C. V. Kumar, E. H. Asuncion, J. Am. Chem. Soc. 1993, 115, 8547-8553). The binding interactions of lanthanide (III) porphyrin complexes with calf thymus DNA were investigated using UV-vis spectroscopy and depicted in FIGS. 9 and 10 (selected absorption curves were shown for clear plot). By monitoring wavelengths at 410 nm (complex 1) and 430 nm (complex 2b), successive additions of calf thymus DNA to the respective complexes in Tris buffer solution containing <5% DMSO were done until saturation. Moderate hyprochromicities of 27% and 23% in complexes 1 and 2b were found without significant bathochromic spectral shift. […] The values of binding constant K were calculated from a plot of D/Δεap versus D based on the following equation:
# Where D is the concentration of DNA, Δεap=|ΔεA−ΔεB| wherein εA=Aobs/[complex], and Δε=|ΔεB−ΔεF|; εB and εF correspond to the extinction coefficients of DNA-bound lanthanide(III) porphyrin complex adduct and its free complex, respectively. By monitoring absorbance at 410 nm (complex 1) and 430 nm (complex 2b), plots of D/Δεap against D are inserted in FIGS. 9 and 10. Linear curves in two graphs were plotted with slopes of 4.63×10^−5 (complex 1) and 3.60×10^−5 (complex 2b) (both R=0.99).
# [2] = test system: cisplatin-resistant variant (CNE2) of human nasopharyngeal carcinoma cells; assay: MTT cell viability assay, CNE2; format: cell-based
# Excerpt: (§1) Human cervical epitheloid carcinoma cells (HeLa), human hepatocellular carcinoma cells (HepG2 and Hep3B), human breast cancer cells (MCF-7), human coloadenocarcinoma cells (HCT-8), and normal human lung fibroblast cells (CCD-19Lu) were purchased from American Type Culture Collection (ATCC) Rockville, Md., USA. The human hepatocellular cancinoma cells QGY-7703, and the multi-drug resistant cell line QGY-TR50 derived from QGY-7703, were generously provided by Prof. Yong Xie (The Hong Kong University of Science and Technology, Hong Kong PRC). QGY-TR50 cells were isolated and cultured as described (J. Zhou, S. C. Cheng, D. Luo, Y. Xie Biochem. Biophys. Res. Commun. 2001, 280, 1237-1242). Human nasopharyngeal carcinoma cells (SUNE1 and its cisplatin-resistant variant—CNE2) were derived from poorly differentiated NPC in Chinese patients and were generously provided by Dr. S. W. Tsao (The University of Hong Kong, Hong Kong PRC). Cell culture flasks and 96-well microtitre plates were from Nalge Nunc Int. Culture medium, other medium constituents and phosphate buffer saline (PBS) were obtained by Gibco BRL Rockville, Md., USA. Cell Proliferation kit I (MTT) was purchased from Roche. Mannheim, Germany.
# [3] = test system: human coloadenocarcinoma cells (HCT-8); assay: MTT cell viability assay, HCT-8; format: cell-based
# Excerpt: as §1
# HeLa cells [4] = assay: Confocal microscopy with AO/EB staining; format: cell-based, human; details: complex 1 0.2 μM 20 h, complex 2b 10 μM 16 h
# Excerpt: Confocal Microscopic Experiment. By examining cell morphology under scanning confocal microscopy, the type of cell death can be distinguished. Early phase of apoptosis is characterized by the formation of apoptotic bodies when the integrity of the cell membrane is maintained without cell lysis. On the other hand, necrosis is characterized by cell lyses with the leaking out of internal cellular components such as DNA. With ethidium bromide (DNA stain) and acridine orange (cell membrane stain) as staining agents, normal, apoptotic and necrotic cells can be distinguished under laser confocal microscopy (Chan et. al., Inorg. Chem. 2002, 41, 3161-3171).
# cytochrome c = assay: Western blotting of mitochondrial and cytosolic fractions, cytochrome c; format: cell-based, human; details: HeLa treated with complex 1
# Procedure: Preparation of Mitochondrial and Cytosolic Fractions. Subcellular fractionations of cells were carried out as described previously with modifications […]. In brief, cells were harvested by centrifugation at 1000 g for 5 min at 4° C. Cell pellets were washed once with ice-cold phosphate-buffered saline and resuspended in 5 volumes of buffer A (20 mM HEPES-KOH, pH 7.5, 10 mM KCl, 1.5 mM MgCl2, 1 mM sodium EDTA, 1 mM sodium EGTA, 1 mM dithiothreitol, 0.1 mM phenylmethylsulfonyl fluoride, 1× proteinase inhibitor mix) containing 250 mM sucrose. After incubation on ice for 15 min, the cells were homogenized with a 25-gauge needle for 20 strokes, and the homogenates were centrifuged at 1,000 g for 5 min at 4° C. […] The protein concentration of cell lysates in different portions was measured using a protein detection kit (Bio-Rad). […] Signals were detected using an ECL detection kit (Amersham Pharmacia Biotech) followed by exposure to X-ray films (Fujifilm).
# After treatment with complex 1 for different time intervals, the expressions of caspase 3, Bid and PARP were detected by the Western blotting analysis. […]
# [5] = IC50 of cisplatin divided by IC50 of complex
substance,measurement,setting,value
[Yb2(OEP)2](μ-OH)2 [Complex 1],effect of 3-MA pretreatment on viability of 1-treated cells,HeLa cells [1],significantly increases cell viability
same,hyprochromicity on addition of calf thymus DNA,"calf thymus DNA; <5% DMSO, until saturation, 410 nm (1), 430 nm (2b)",27%
same,binding constant K with calf thymus DNA,"calf thymus DNA; UV-vis absorption titration, 20° C.",(1.59±0.3)×10^6 mol^−1dm^3
same,"IC50 ratio cisplatin/complex, CNE2",[2]; [5],17.2
same,IC50,"[2]; MTT, 37° C., 48 h, mean ± SD",3350 nM
same,"IC50 ratio cisplatin/complex, HCT-8",[3]; [5],11.6
same,IC50,"[3]; MTT, 37° C., 48 h, mean ± SD",2270 ± 600 nM
same,cell morphology (type of cell death) under confocal microscopy,HeLa cells [4],both living and apoptotic cells were observed
same,amount of cytochrome c in the cytosolic fraction,cytochrome c,increase
same,amount of cytochrome c in the mitochondria,cytochrome c,corresponding decrease
